Tests used:
[1] = Preclinical PK study: plasma VEN and ODV after a single oral dose of ER formulations, LC-MRM-MS/MS, noncompartmental analysis; format: in vivo, New Zealand White rabbits; details: throughout the sampling period (36 h); after oral optimized ER tablet and RLD; above LOQ
Procedure: Four pairs (male/female) of healthy rabbits, each weighing 3–4 kg, were provided by Government Rabbit Farm, Wussan (Pattan), Kashmir. The rabbits were divided into a reference group and a test group. […] The resulting plasma samples were frozen at − 40 °C until further analysis.
The PK evaluation summarized in Table 11 was carried out by way of noncompartmental analysis (NCA) using WinNonlin 8.1 and the additional statistical computations were performed in SAS 9.4. […] The statistical assurance of bioequivalent similarity given in Table 12 was computed using analysis of variance on log-transformed PK parameters (Cmax, AUClast, and AUCINF_obs) of reference and test product.

dopamine reuptake = system: dopamine reuptake; set-up: method as in doi:10.2165/00023210-200014060-00006; details: cited from earlier work
noradrenaline reuptake = system: noradrenaline reuptake; set-up: method as in doi:10.2165/00023210-200014060-00006; details: cited from earlier work
serotonin reuptake = details: cited from earlier work

SMILES	plasma concentrations [1] [ng/mL]	inhibition of dopamine reuptake (dopamine reuptake)	inhibition of noradrenaline reuptake (noradrenaline reuptake)	inhibition of serotonin reuptake (serotonin reuptake)
COc1ccc(C(CN(C)C)C2(O)CCCCC2)cc1 (racemic) [VEN, (RS) 1-[2-(dimethylamino)-1-(4-methoxyphenyl)ethyl]cyclohexanol]	> 0.5	weakly inhibit	potent inhibitors	
CN(C)CC(c1ccc(O)cc1)C1(O)CCCCC1 (stereo not shown) [ODV, O-desmethylvenlafaxine]	> 0.5	weakly inhibit	potent inhibitors	potent inhibitors

From article PMC9167309, “Multiple-reaction monitoring (MRM) LC–MS/MS quantitation of venlafaxine and its O-desmethyl metabolite for a preclinical pharmacokinetic study in rabbits” (Scientific Reports, 2022)
